pIC50: −log10 of the molar value. Read-outs that look alike come from different tables or passages of the source.
What was measured:
[1] = biological target: T1, human muscarinic M3 receptors (Homo sapiens, UniProt P20309); assay: biochemical; format: binding; conditions: for IC50: [3H]-NMS displacement, membranes of CHO-K1 cells expressing human M3, 25° C., 60 min, read-out: BINDING TO RECPTOR M3 (IC50 nM)
T1 construct: expressed in transfected cells; host or cells: Chinese hamster ovary-K1 (CHO) cells, membrane preparations
T1 sequence (P20309 whole entry): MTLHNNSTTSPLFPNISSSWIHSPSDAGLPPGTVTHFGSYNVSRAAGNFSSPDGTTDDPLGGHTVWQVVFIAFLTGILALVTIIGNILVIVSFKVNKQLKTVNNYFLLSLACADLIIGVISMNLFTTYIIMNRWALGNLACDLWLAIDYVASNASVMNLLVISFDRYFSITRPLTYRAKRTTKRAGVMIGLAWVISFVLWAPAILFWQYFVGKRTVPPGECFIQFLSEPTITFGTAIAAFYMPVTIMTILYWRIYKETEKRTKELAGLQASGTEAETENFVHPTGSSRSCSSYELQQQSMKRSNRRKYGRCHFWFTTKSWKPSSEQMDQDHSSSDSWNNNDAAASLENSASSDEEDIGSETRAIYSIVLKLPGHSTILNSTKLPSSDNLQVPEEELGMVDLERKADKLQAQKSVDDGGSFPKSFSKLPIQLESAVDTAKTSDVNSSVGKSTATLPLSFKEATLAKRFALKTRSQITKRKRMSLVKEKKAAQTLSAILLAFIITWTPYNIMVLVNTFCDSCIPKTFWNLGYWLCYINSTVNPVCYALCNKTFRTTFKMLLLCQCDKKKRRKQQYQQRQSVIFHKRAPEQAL
Description: The binding of [^3H]-NMS to human muscarinic receptors was performed according to Waelbroek et al (1990), Mol. Pharmacol., 38:267–273. Assays were carried out at 25° C. Membrane preparations from stably transfected Chinese hamster ovary-K1 cells (CHO) expressing the genes for the human muscarinic M3 receptors were used.
For determination of IC50, membrane preparations were suspended in DPBS to a final concentration of 89 μg/ml for the M3 subtype. The membrane suspension wasincubated with the tritiated compound for 60 min. After incubation the membrane fraction was separated by filtration and the bound radioactivity determined. […] At least six concentrations were assayed in duplicate to generate individual displacement curves.

Molecule	melting point [°C]	IC50 [1] [nM]	pIC50 [1]
O=C(O[C@H]1C[N+]2(CC=Cc3ccccc3)CCC1CC2)N(Cc1ccccc1)c1ccccc1.[Br-] [Example 5, 3-(R)(Benzylphenylcarbamoyloxy)-1-(3-phenylallyl)-1-azoniabicyclo[2.2.2]octane; bromide]	129	11.1	–
CCCCCN(C(=O)O[C@H]1CN2CCC1CC2)c1ccccc1 [Example 104, Pentylphenylcarbamic acid 1-azabicyclo[2.2.2]oct-3-(R)yl ester]	–	–	7.72
C=CC[N+]12CCC(CC1)[C@@H](OC(=O)N(CCCC)c1ccccc1)C2.[Br-]	141	–	–
O=C(O[C@H]1CN2CCC1CC2)N(Cc1ccsc1)c1ccccc1 [Example 126, Phenylthiophen-3-ylmethylcarbamic acid 1-azabicyclo[2.2.2]oct-3-(R)yl ester]	–	8.6	–
O=C(O[C@H]1C[N+]2(CCCc3ccccc3)CCC1CC2)N(Cc1ccccc1)c1ccccc1.[Br-] [Example 31, 3-(R)(Benzylphenylcarbamoyloxy)-1-(3-phenylpropyl)-1-azoniabicyclo[2.2.2]octane; bromide]	101	8	–
O=C(O[C@H]1C[N+]2(CCc3ccccc3)CCC1CC2)N(Cc1ccccc1)c1ccccc1.[Br-]	81	–	–
O=C(O[C@H]1C[N+]2(CCCc3cccs3)CCC1CC2)N(Cc1cccs1)c1ccccc1 [Example 90, 3-(R)(phenylthiophen-2-ylmethylcarbamoyloxy)-1-(3-thiophen-2-ylpropyl)-1-azoniabicyclo[2.2.2]octane; bromide]	–	9.2	–
O=C(O[C@H]1C[N+]2(CCCc3ccccc3)CCC1CC2)N(Cc1cccs1)Cc1cccs1 [Example 142, 3-(R)(bis-thiophen-2-ylmethylcarbamoyloxy)-1-(3-phenylpropyl)-1-azoniabicyclo [2.2.2]octane; bromide]	–	17.8	–
O=C(O[C@@H]1C[N+]2(CCCc3ccccc3)CCC1CC2)N(Cc1ccccc1)c1ccccc1.[Br-]	64	–	–
1-Allyl-3-(R)(phenylthiophen-2-ylmethylcarbamoyloxy)-1-azoniabicyclo [2.2.2]octane; bromide [Example 92]	–	11.5	–
CCCCN(C(=O)O[C@H]1C[N+]2(CCOc3ccccc3)CCC1CC2)c1ccccc1 [Example 79, 3-(R)(Butylphenylcarbamoyloxy)-1-(2-phenoxyethyl)-1-azoniabicyclo[2.2.2]octane; bromide]	–	14	–
O=C(O[C@H]1C[N+]2(CCOc3ccccc3)CCC1CC2)N(Cc1cccs1)c1ccccc1 [Example 91, 1-(2-Phenoxyethyl)-3-(R)(phenylthiophen-2-ylmethylcarbamoyloxy)-1-azonia bicyclo[2.2.2]octane; bromide]	–	6.8	–
O=C(O[C@H]1CN2CCC1CC2)N(Cc1ccco1)Cc1ccco1 [Example 156, bis-Furan-2-ylmethylcarbamic acid 1-azabicyclo[2.2.2]oct-3-(R)yl ester]	–	18	–
O=C(O[C@H]1CN2CCC1CC2)N(Cc1ccco1)c1ccccc1 [Example 153, Furan-2-ylmethylphenylcarbamic acid 1-azabicyclo[2.2.2]oct-3-(R)yl ester]	–	6	–
CCCCN(C(=O)O[C@H]1C[N+]2(CCCc3ccccc3)CCC1CC2)c1ccccc1.[Br-]	120	–	–
3-(R)(Phenylthiophen-3-ylmethylcarbamoyloxy)-1-(2-phenoxyethyl)-1-azonia bicyclo[2.2.2]octane; bromide [Example 136]	–	9	–
CCCCN(C(=O)O[C@H]1C[N+]2(CCc3ccccc3)CCC1CC2)c1ccccc1.[Br-]	139	–	–
O=C(O[C@H]1CN2CCC1CC2)N(Cc1cccs1)c1ccccc1 [Example 82, Phenylthiophen-2-ylmethylcarbamic acid 1-azabicyclo[2.2.2]oct-3-(R)yl ester]	–	4.5	–
O=C(O[C@H]1CN2CCC1CC2)N(Cc1ccccc1)c1ccccc1 [Example 1, Benzylphenylcarbamic acid 1-azabicyclo[2.2.2]oct-3-(R)yl ester]	–	5	–
CCCCN(C(=O)O[C@H]1C[N+]2(CC=Cc3ccccc3)CCC1CC2)c1ccccc1.[Br-] [Example 58, 3-(R)(Butylphenylcarbamoyloxy)-1-(3-phenylallyl)-1-azoniabicyclo[2.2.2]octane; bromide]	144	8	–
O=C(O[C@H]1C[N+]2(CCOc3ccccc3)CCC1CC2)N(Cc1ccccc1)c1ccccc1 [Example 32, 3-(R)(Benzylphenylcarbamoyloxy)-1-(2-phenoxyethyl)-1-azoniabicyclo[2.2.21 octane; bromide]	–	8	–
O=C(O[C@H]1C[N+]2(CCCc3cccs3)CCC1CC2)N(Cc1cccs1)Cc1cccs1 [Example 146, 3-(R)(bis-thiophen-2-ylmethylcarbamoyloxy)-1-(3-thiophen-2-ylpropyl)-1-azonia bicyclo[2.2.2]octane; bromide]	–	14.4	–
C=CC[N+]12CCC(CC1)[C@@H](OC(=O)N(Cc1ccccc1)c1ccccc1)C2.[Br-] [Example 6, 1-Allyl-3-(R)(benzylphenylcarbamoyloxy)-1-azoniabicyclo[2.2.2]octane; bromide]	70	18	–

Source: US7312231B2, “Quinuclidine carbamate derivatives and their use as M3 antagonists” (priority 2000, dated 2007)
